These results are taken from ChEMBL document CHEMBL1795326, “Pharmacophore based virtual screening, molecular docking studies to design potent heat shock protein 90 inhibitors” (Eur J Med Chem, 2011).

Molecules are shown by their SMILES.

This assay can be described thus: Inhibition of HSP90.
A word on the IC50: it is the point on the concentration scale where inhibition reaches its midpoint. A lower IC50 goes with higher potency. Molecule `Oc1ccc2c(-c3cc(Br)c(O)cc3O)noc2c1` displayed an IC50 of 190 µM.

`Cc1nc(N)nc2c1/C(=N/O)C[C@@H](c1ccc(F)cc1-c1cccnc1)C2` returned an IC50 of 30 µM.

On to `CCOC(=O)NCc1ccc(-n2cnnc2-c2cc(C(C)C)c(O)cc2O)cc1`, for which the IC50 stood at 40 µM.

The molecule `Cc1ccccc1[C@H]1CCCN1C(=O)c1ccc(O)cc1O` showed an IC50 of 60 µM.
